Reference: patent US20240358021A1, “COMPOSITION COMPRISING POTASSIUM BICARBONATE AND USE THEREOF FOR TREATING AND/OR PROTECTING CROPS” (SCEA DU CHATEAU MONTROSE, priority 2021, published 2024)

Key:
[1] = test system: downy mildew (P. viticola) strains PV221, PV413-1, PV1538-1; experiment: In vitro efficacy test on vine leaf discs (Example 2); type: cell-based, Plasmopara viticola; details: mean over downy mildew strains; Example 2 method
[2] = test system: downy mildew, powdery mildew and vine rot

Row | Mean IC50 (CI 50) [1] | Mean MIC (CMI) [1] | SMILES | effect on phytopathogens, in words [2]
1 | 1850 µg/mL | 10000 µg/mL | O=C([O-])O.[Na+] [NaHCO3, sodium bicarbonate] | –
2 | 1000 µg/mL | 5600 µg/mL | O=C([O-])O.[K+] [KHCO3, potassium bicarbonate] | significant
